Consider 25 compounds from publication PMC11487561 (ACS Chemical Neuroscience, 2024).

Read-outs that look alike come from different tables or passages of the source. Where only a bound is given, the exact number is not on record here.

One series concerns the target T1, human M4 (hM4) (Homo sapiens, UniProt P08173).
T1 construct: expressed in transfected cells
T1 sequence (P08173 1-479): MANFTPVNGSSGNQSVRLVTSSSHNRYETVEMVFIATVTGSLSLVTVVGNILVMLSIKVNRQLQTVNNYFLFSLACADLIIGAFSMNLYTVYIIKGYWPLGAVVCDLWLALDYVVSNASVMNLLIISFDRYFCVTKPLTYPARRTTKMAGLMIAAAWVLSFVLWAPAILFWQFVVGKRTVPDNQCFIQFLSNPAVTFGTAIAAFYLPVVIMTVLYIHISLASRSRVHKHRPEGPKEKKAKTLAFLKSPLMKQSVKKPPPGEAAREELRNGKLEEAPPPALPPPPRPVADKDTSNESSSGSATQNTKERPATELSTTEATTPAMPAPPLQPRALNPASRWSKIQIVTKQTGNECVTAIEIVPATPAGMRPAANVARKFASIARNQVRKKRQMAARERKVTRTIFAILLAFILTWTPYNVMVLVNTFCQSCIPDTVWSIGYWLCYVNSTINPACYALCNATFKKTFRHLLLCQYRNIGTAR
Briefly: Calcium mobilization assay, hM4/Gqi5-CHO cells, EC20 acetylcholine (PAM). It is filed as cell-based. The following applies: for Emax: read-out: hM4 %ACh Max; for fold decrease in hM4 activity with R1 larger than methyl: relative to the R1 = methyl analogue; for fold loss in hM4 potency vs comparator: 14e vs 14g, 14c vs VU6007215. (In general: Calcium flux is commonly read through the fluorescence of an indicator in the cells.)

Series [1] is described as follows: Binding in brain homogenate from rat (equilibrium dialysis). It is filed as in vitro ADME. The following applies: rat, brain homogenate, in %; read-out: fu,brain (rat brain homogenate). As for the experimental part: Binding in brain homogenate from rat.
Determination of fraction unbound (f u) in brain homogenate from rat was conducted using the same methodology and procedure than described for plasma protein binding assay with the following modifications: 1) a final compound concentration of 1 μM was used, 2) naïve rat brains were homogenized in DPBS (1:3 composition of brain: DPBS, w/w) using a Mini-Bead Beater™ machine in order to obtain […]
The diluted fraction unbound (f u2) in brain was calculated as (analyte to IS MS peak area ratio from Trans-buffer side) / (analyte to IS MS peak area ratio from Cis-brain homogenate side). Undiluted fraction unbound for the brain was calculated using the following equation: […]
Mean values for each species were calculated from 3 replicates. […]

The mark [2] stands for this setting: calcium mobilization, hM4/Gqi5-CHO cells, EC20 acetylcholine.
Setting [3] is: calcium mobilization, hM4/Gqi5-CHO cells, EC20 acetylcholine, read-out: hM4 EC50.
The mark [4] stands for this setting: calcium mobilization, hM4/Gqi5-CHO cells, EC20 acetylcholine, read-out: hM4 pEC50 (converted).

Consider `Cc1nc(C)c2c(n1)sc1c(N3CCC3)ncnc12` [14d], for which, at human M4 (hM4) (setting [2]), the “hM4 pEC50” value is 5.84 and the Emax was found to be 60%. Further, the EC50 at human M4 (hM4) (setting [3]) is 1.4 µM.
As to `Cc1nc(C)c2c(n1)sc1c(NCc3ccc(C(C)(C)O)cc3)ncc(Cl)c12` [26a], at human M4 (hM4) (setting [2]), the “hM4 pEC50” value was found to be 5.48 and the Emax is 92%.
Consider `CCc1nc(C)c2c(n1)sc1c(NCc3ccc(C(C)(C)O)cc3)nccc12` [22p], for which the Emax on human M4 (hM4) (setting [2]) turned out to be 81%. Moreover, the EC50 at human M4 (hM4) (setting [3]) stood at 0.77 µM. The “fold decrease in hM4 activity with R1 larger than methyl” value (“fold decrease in hM4 activity” below) at human M4 (hM4) was determined as 4.0 fold.
On to `Cc1nc(C)c2c(n1)sc1c(N3CCN(C)CC3)nccc12` [22b], for which the Emax on human M4 (hM4) (setting [2]) came out at 52%. Besides, the EC50 on human M4 (hM4) (setting [3]) was above 10 µM.
On to `Cc1nc(C)c2c(n1)sc1c(N3CCC(F)(F)C3)ncnc12` [14e], for which, on human M4 (hM4), the “fold loss in hM4 potency vs comparator” value is reported as 2.2 fold. For the same compound, at human M4 (hM4) (setting [2]), the “hM4 pEC50” value was found to be 6.20 and the Emax stood at 77%. On human M4 (hM4) (setting [3]), the EC50 amounted to 0.64 µM.
In the case of `Cc1nc(C)c2c(n1)sc1c(C3CC3)nccc12` [23a], the Emax at human M4 (hM4) (setting [2]) was determined as 109%. Besides, at human M4 (hM4) (setting [3]), the EC50 came to 0.57 µM.
Turning to `Cc1nc(C)c2c(n1)sc1c(N3CCCC3)ncc(Cl)c12` [26b], the Emax on human M4 (hM4) (setting [2]) came to 61%. Also, the EC50 at human M4 (hM4) (setting [3]) was 0.69 µM.
Turning to `Cc1nc(C)c2c(n1)sc1c(NCc3ccc(C(C)(C)O)cc3)ncc(C3CC3)c12` [compound 27], the EC50 at human M4 (hM4) (setting [4]) was above 31.6 µM.
Turning to `Cc1nc(C)c2c(n1)sc1c(N3CCCCC3)ncnc12` [14a], the results for the EC50 at human M4 (hM4) (setting [3]) and at human M4 (hM4) (setting [4]) were above 30 µM and above 31.6 µM, respectively.
For `Cc1nc(C)c2c(n1)sc1c(N3CCCC3)ncnc12` [14g], on human M4 (hM4) (setting [2]), the “hM4 pEC50” value was 6.54 and the Emax is 52%. For the same compound, the EC50 at human M4 (hM4) (setting [3]) turned out to be 0.29 µM.
For `Cc1nc(C)c2c(n1)sc1c(CC(C)(C)C)nccc12` [23b], the Emax at human M4 (hM4) (setting [2]) is 86%. Further, on human M4 (hM4) (setting [3]), the EC50 is 0.24 µM.
Turning to `Cc1nc(C)c2c(n1)sc1c(NCc3ccc(C(C)(C)O)cc3)ncnc12` [14j], on human M4 (hM4) (setting [2]), the “hM4 pEC50” value came to 5.90 and the Emax stood at 70%. For the same compound, on human M4 (hM4) (setting [3]), the EC50 came to 1.3 µM. Also, the EC50 at human M4 (hM4) (in μM, read-out: hM4 EC50) is above 1 µM.
For the compound `Cc1nc(C)c2c(n1)sc1c(NC3CCCC3)nccc12` [22d], on human M4 (hM4) (setting [2]), the “hM4 pEC50” value came to 6.87 and the Emax worked out at 73%. The EC50 on human M4 (hM4) (setting [3]) worked out at 0.13 µM.
As for `Cc1nc(C)c2c(n1)sc1c(N3CCOCC3)ncnc12` [14b], the Emax on human M4 (hM4) (setting [2]) is 39%. The EC50 is 5.6 µM on human M4 (hM4) (setting [3]) and 5.5 µM at human M4 (hM4) (setting [4]).
As for `Cc1nc(CC(C)C)nc2sc3c(NCc4ccc(C(C)(C)O)cc4)nccc3c12` [22n], the Emax on human M4 (hM4) (setting [2]) came to 66%. The “fold decrease in hM4 activity” value on human M4 (hM4) is reported as above 66 fold.
Turning to `Cc1nc(C)c2c(n1)sc1c(NCc3ccc(C(C)(C)O)cc3)ncc(C#N)c12` [compound 28], the Emax on human M4 (hM4) (setting [2]) stood at 62%. Further, on human M4 (hM4) (setting [3]), the EC50 turned out to be 0.96 µM.
In the case of `Cc1nc(C)c2c(n1)sc1c(NC3CCC3)nccc12` [22c], at human M4 (hM4) (setting [2]), the “hM4 pEC50” value worked out at 6.52 and the Emax was determined as 95%.
On to `Cc1nc(C2CC2)nc2sc3c(NCc4ccc(C(C)(C)O)cc4)nccc3c12` [22o], for which, at human M4 (hM4) (setting [2]), the “hM4 pEC50” value is 5.86 and the Emax came out at 97%. Besides, at human M4 (hM4) (setting [3]), the EC50 was 1.4 µM. For the same compound, at human M4 (hM4), the “fold decrease in hM4 activity” value is given as 9.3 fold.
Regarding `Cc1nc(C)c2c(n1)sc1c(NC3CCCC3)ncnc12` [14f], on human M4 (hM4) (setting [2]), the “hM4 pEC50” value is 6.25 and the Emax came out at 56%. For the same compound, on human M4 (hM4) (setting [3]), the EC50 was determined as 0.56 µM.
For `Cc1nc(C)c2c(n1)sc1c(NCc3ccc(C(C)(C)O)cc3F)nccc12` [22h], on human M4 (hM4) (setting [2]), the “hM4 pEC50” value was determined as 6.08 and the Emax was determined as 89%.
For `COc1ccc(CNc2ncnc3c2sc2nc(C)nc(C)c23)cc1F` [14k], on human M4 (hM4) (setting [2]), the “hM4 pEC50” value was determined as 5.94 and the Emax came to 65%. For the same compound, the EC50 at human M4 (hM4) (setting [3]) came to 1.2 µM. Moreover, at human M4 (hM4) (in μM, read-out: hM4 EC50), the EC50 was above 1 µM.
For the compound `Cc1nc(C)c2c(n1)sc1c(N3CC4(COC4)C3)ncnc12` [14c], at human M4 (hM4), the “fold loss in hM4 potency vs comparator” value amounted to 11 fold. In addition, at human M4 (hM4) (setting [2]), the “hM4 pEC50” value is 5.80 and the Emax is 76%. At human M4 (hM4) (setting [3]), the EC50 amounted to 1.6 µM.
Take `Cc1nc(C)c2c(n1)sc1c(NCc3ccc(C(C)(C)O)c(F)c3)nccc12` [22i]: the fraction unbound at 6 h, 1 µM in series [1] is below 0.01. Also, the Emax on human M4 (hM4) (setting [2]) amounted to 86%. The EC50 on human M4 (hM4) (setting [3]) was 0.28 µM.
In the case of `CCN(CC)c1nccc2c1sc1nc(C)nc(C)c12` [22a], the Emax at human M4 (hM4) (setting [2]) is 38%.
Take `Cc1nc(C2CC2)nc2sc3c(N4CCCC4)nccc3c12` [22q]: at human M4 (hM4) (setting [2]), the “hM4 pEC50” value is 6.00 and the Emax amounted to 65%. Besides, the EC50 on human M4 (hM4) (setting [3]) turned out to be 1 µM. The “fold decrease in hM4 activity” value on human M4 (hM4) is on record as above 13 fold.
